Measurements from patent publication US20220144838A1, “Compounds as Inhibitors of Macrophage Migration Inhibitory Factor” (NANJING IMMUNOPHAGE BIOTECH CO., LTD., priority 2019, published 2022).
Where two headings read alike, the source gives them in different places.

How the values were obtained:
MIF = target: T1, MIF (Homo sapiens, UniProt P14174); test: MIF tautomerase assay using pHPP as substrate; format: biochemical; details: mean of multiple test results
T1 sequence (P14174 2-115 limits assumed): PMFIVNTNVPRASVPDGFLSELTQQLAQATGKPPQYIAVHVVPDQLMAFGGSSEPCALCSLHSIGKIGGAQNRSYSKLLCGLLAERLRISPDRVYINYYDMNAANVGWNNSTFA
Method in brief: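 Cell-free keto-to-enol tautomerization of pHPP, enol product detected spectrophotometrically as borate complex. Final 3 nM MIF and 1.5 mM ketonic pHPP in DPBS/boric acid buffer with 0.025% BSA and 300 μM CHAPS, pH 6.0, room temperature; initial rates from absorbance slopes give mean pIC50.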

[1] = target: T2, biotinylated human MIF / MIF receptor ectodomain (sCD74) (Homo sapiens, UniProt P14174); test: MIF-CD74 binding assay; details: FIGS. 9-12; read-out: pIC50 MIF-CD74 binding (converted)
T2 construct: made in house
T2 sequence (P14174 2-115 limits assumed): T1 sequence (P14174 2-115 limits assumed)
Protocol: The assay measures the ability of a compound to inhibit the binding of MIF with its receptor CD74 in vitro. 96-well plates were coated with recombinant MIF receptor ectodomain (sCD74=CD7473-232), washed 4 times, and blocked with Superblock (Pierce Biotechnology) at 4° C. overnight. Test compounds, which were used at a top final assay concentration of 33.3 μM, diluted in assay medium with 1:3 dilutions to produce 10 point concentration responses, were pre-incubated with biotinylated human MIF (2 ng/μl) (Roche Applied Sciences) prepared recombinantly for 30 minutes at room temperature. The mixtures then were added to wells for overnight incubation at 4° C. The wells were washed 4 times and strepavidin-conjugated alkaline phosphatase (R&D Systems) was added for one hour incubation at room temperature. After additional washes, 60 μl/well of p-nitrophenyl phosphate (Sigma) substrate was added. Absorbance at 405 nm was plotted as percent A405 relative to wells containing biotinylated human MIF alone. Each plot represented at least three independently performed assays, and each data point depicts a SEM≤10%. Each test compound was analyzed over 10-12 concentrations, and over a ˜500-fold concentration range.
(§1) Selected examples were tested in the MIF-CD74 binding assay. The data mentioned below represents a mean pIC50 value of multiple test results. It is understood that the data illustrated below may have reasonable variation depending on the specific conditions and procedures used by the person conducting the testing.

4T1 cells = test: 4T1 breast cancer syngeneic mouse model; format: in vivo, Balb/c mice; details: 4T1 model; IMG-321 20 mg/kg b.i.d. combined with gemcitabine 3 mg/kg once every 10 days
Protocol: Female Balb/c mice (5-6 weeks old) were purchased from Charles River Laboratories (Hollister, Calif.). Animals were housed and treated in accordance with Institutional Animal Care and Use Committee guidelines. For the generation of 4T1 breast cancer model, 1×10^5 4T1 cells were injected orthotopically into the mammary fat pad. For the generation of lung cancer model, 1×10^5 LLC cells were injected subcutaneously. For the generation of murine melanoma model, 1×10^5 B16-F10 cells were injected subcutaneously. Test compounds were administered by I.P. injection in a dose range of 10-100 mg/kg starting on study day 1 (7 days after tumor implantation). Control groups received vehicle (water) twice daily by I.P. injection. Tumor volume measured by digital caliper (length×width×width/2) and body weight were recorded three times per week. Animals were euthanized when tumors necrotized or volumes reached 2000 mm3.
One-way Anova, student's T test, and Mann-Whitney test performed by GraphPad5 PRISM software (GraphPad Software, Inco, San Diego, Calif., USA) were used according to different experimental conditions. P value<0.05 was considered statistically significant. Significance is indicated in the figures by asterisks *p<0.05, **p<0.01.
Female Balb/C mice (8 weeks old) were injected with 1×10^5 4T1 cells into the mammary fat pad. […] Tumor volume was measured by digital caliper (length×width×width/2). […]

BV2 cells = test: BV2 cell proliferation assay (CCK-8); format: cell-based; details: Mus musculus, BV-2, 48 h treatment, FIGS. 6-8, read-out: pIC50 BV2 cell proliferation (converted)
From the text: The assay measures the ability of a compound to inhibit cell proliferation using Cell Counting Kit-8 (CCK-8), which allows sensitive colorimetric assays for the determination of cell viability in cell proliferation and cytotoxicity assays. The highly water-soluble tetrazolium salt, WST-8, is reduced by dehydrogenase activities in cells to give a yellow-color formazan dye, which is soluble in the tissue culture media. The amount of the formazan dye, generated by the activities of dehydrogenases in cells, is directly proportional to the number of living cells.
The assay was performed based on the instruction of the manufacture (Dojindo Molecular Technologies Inc., Rockville, Md., USA). To start the assay, BV2 cells were seeded at a density of […] into 96-well plates and treated with test compounds, which were used at a top final assay concentration of 33.3 μM, diluted in assay medium with 1:3 dilutions to produce 10 point concentration responses, for 48 h. After incubation, the CCK-8 solution (10 μl) was added to each well of the plate and the plates were incubated in incubator at 37° C. for 3 h. Absorbance was recorded three times independently using a microplate reader (Bio-Rad Laboratories, Richmond, Calif., USA) at 450 nm.
as §1, with “BV2 cell proliferation” for “MIF-CD74 binding”

[2] = inhibition of the MIF enzyme in vitro, read-out: Tautomerase Inhibition pIC50 (converted)

## Nc1nc(N2CCN(c3ccc(O)cc3)CC2)nc2c1ncn2-c1cccnc1 [Example 115, 4-(4-(6-amino-9-(pyridin-3-yl)-9H-purin-2-yl)piperazin-1-yl)phenol]
MIF; [2]
  IC50: 100 to 977 nM
[1]
  IC50: 2610 nM

## Nc1ccn([C@@H]2O[C@H](CO)[C@@H](O)C2(F)F)c(=O)n1 [Gemcitabine, gemcitabine]
4T1 cells
  breast cancer growth (tumor volume), combination: Synergistically Inhibited Breast Cancer Growth

## COc1ncccc1-n1cnc2c(C)nc(N3CCN(c4ccc(O)cc4)CC3)nc21 [Example 62, 4-(4-(9-(2-methoxypyridin-3-yl)-6-methyl-9H-purin-2-yl)piperazin-1-yl)phenol]
MIF; [2]
  IC50: 10 to 97.7 nM
[1]
  IC50: 26300 nM

## Nc1nc(N2CCN(c3ccc(O)cc3)CC2)nc2c1ncn2-c1ccncc1 [Example 80, 4-(4-(6-amino-9-(pyridin-4-yl)-9H-purin-2-yl)piperazin-1-yl)phenol]
MIF; [2]
  IC50: 10 to 97.7 nM
BV2 cells
  IC50: 5020 nM

## Oc1ccc(N2CCN(c3nc(NCC4CC4)c4ncn(-c5cccnc5)c4n3)CC2)cc1 [Example 95, 4-(4-(6-((cyclopropylmethyl)amino)-9-(pyridin-3-yl)-9H-purin-2-yl)piperazin-1-yl)phenol]
MIF; [2]
  IC50: 1000 to 9770 nM
BV2 cells
  IC50: 6920 nM

## COc1ccc2c(cnn2-c2nc(N3CCN(c4ccc(O)cc4)CC3)nc3c2ncn3CC(=O)O)c1 [Example 51, 2-(2-(4-(4-hydroxyphenyl)piperazin-1-yl)-6-(5-methoxy-1H-indazol-1-yl)-9H-purin-9-yl)acetic acid]
MIF; FIGS. 1-5, read-out: pIC50 MIF tautomerase activity (converted)
  IC50: ≤ 100 nM
MIF; [2]
  IC50: 10 to 97.7 nM
[1]
  IC50: 8910 nM

## O=C(O)CCn1cnc2c(-n3ncc4ccccc43)nc(N3CCN(c4ccc(O)cc4)CC3)nc21 [Example 148, 4-(2-(4-(4-hydroxyphenyl)piperazin-1-yl)-6-(1H-indazol-1-yl)-9H-purin-9-yl)propanoic acid]
MIF; [2]
  IC50: 10 to 97.7 nM
[1]
  IC50: 4900 nM

## N#Cc1ccc(-n2cnc3c(N)nc(N4CCN(c5ccc(O)cc5)CC4)nc32)cn1 [Example 86, 5-(6-amino-2-(4-(4-hydroxyphenyl)piperazin-1-yl)-9H-purin-9-yl)picolinonitrile]
MIF; [2]
  IC50: 100 to 977 nM

## Nc1nc(N2CCCN(c3ccccc3)CC2)nc2c1ncn2-c1ccncc1 [Example 227, 2-(4-phenyl-1,4-diazepan-1-yl)-9-(pyridin-4-yl)-9H-purin-6-amine]
MIF; [2]
  IC50: > 10000 nM

## Nc1nc(N2CCC(O)(c3ccccc3)CC2)nc2c1ncn2-c1ccncc1 [Example 202, 1-(6-amino-9-(pyridin-4-yl)-9H-purin-2-yl)-4-phenylpiperidin-4-ol]
MIF; [2]
  IC50: > 10000 nM

## Nc1nc(N2CCN(c3ccc(O)cc3)CC2)nc2c1ncn2-c1cncnc1 [Example 81, 4-(4-(6-amino-9-(pyrimidin-5-yl)-9H-purin-2-yl)piperazin-1-yl)phenol]
MIF; [2]
  IC50: 1000 to 9770 nM
BV2 cells
  IC50: 23100 nM

## O=C(O)Cn1cnc2c(-n3nnc4c(C(=O)O)cccc43)nc(N3CCN(c4ccc(O)cc4)CC3)nc21 [Example 122, 1-(9-(carboxymethyl)-2-(4-(4-hydroxyphenyl)piperazin-1-yl)-9H-purin-6-yl)-1H-benzo[d][1,2,3]triazole-4-carboxylic acid]
MIF; [2]
  IC50: 10 to 97.7 nM

## Oc1ccc(N2CCN(c3nc(-n4ncc5ccccc54)c4ncn(Cc5nnn[nH]5)c4n3)CC2)cc1 [Example 17, 4-(4-(9-((1H-tetrazol-5-yl)methyl)-6-(1H-indazol-1-yl)-9H-purin-2-yl)piperazin-1-yl)phenol]
MIF; [2]
  IC50: 100 to 977 nM

## Nc1nc(N2CCN(c3ccc(O)cc3)CC2)nc2c1ncn2C1CCCCO1 (stereo not shown) [Example 187, 4-(4-(6-amino-9-(tetrahydro-2H-pyran-2-yl)-9H-purin-2-yl)piperazin-1-yl)phenol]
MIF; [2]
  IC50: > 10000 nM

## O=C(O)Cn1cnc2c(N3Cc4ccccc4C3)nc(N3CCN(c4ccc(O)cc4)CC3)nc21 [Example 26, 2-(2-(4-(4-hydroxyphenyl)piperazin-1-yl)-6-(isoindolin-2-yl)-9H-purin-9-yl)acetic acid]
MIF; [2]
  IC50: 100 to 977 nM

## Cc1nc(N2CCC(O)(c3cccc(O)c3)CC2)nc2c1ncn2-c1ccncc1 [Example 206, 4-(3-hydroxyphenyl)-1-(6-methyl-9-(pyridin-4-yl)-9H-purin-2-yl)piperidin-4-ol]
MIF; [2]
  IC50: 100 to 977 nM

## Cc1cncc(-n2cnc3c(N)nc(N4CCN(c5ccc(O)cc5)CC4)nc32)c1 [Example 68, 4-(4-(6-amino-9-(5-methylpyridin-3-yl)-9H-purin-2-yl)piperazin-1-yl)phenol]
MIF; [2]
  IC50: > 10000 nM

## O=C(O)Cn1cnc2c(-n3ncc4c(CO)cccc43)nc(N3CCN(c4ccc(O)cc4)CC3)nc21 [Example 16, 2-(6-(4-(hydroxymethyl)-1H-indazol-1-yl)-2-(4-(4-hydroxyphenyl)piperazin-1-yl)-9H-purin-9-yl)acetic acid]
MIF; [2]
  IC50: 10 to 97.7 nM

## CN(CC(=O)O)c1nc(N2CCN(c3ccc(O)cc3)CC2)nc2c1ncn2-c1ccncc1 [Example 166, 3N-(2-(4-(4-hydroxyphenyl)piperazin-1-yl)-9-(pyridin-4-yl)-9H-purin-6-yl)-N-methylglycine]
MIF; [2]
  IC50: 10 to 97.7 nM

## Oc1ccc(N2CCN(c3nc(N4C[C@H](O)[C@@H](O)C4)c4ncn(-c5ccncc5)c4n3)CC2)cc1 [Example 171, (3S,4S)-1-(2-(4-(4-hydroxyphenyl)piperazin-1-yl)-9-(pyridin-4-yl)-9H-purin-6-yl)pyrrolidine-3,4-diol]
MIF; [2]
  IC50: 10 to 97.7 nM

## Cc1nc(N2CCN(c3ccc(O)cc3)CC2)nc2c1ncn2-c1cccnc1 [Example 229, 4-(4-(6-methyl-9-(pyridin-3-yl)-9H-purin-2-yl)piperazin-1-yl)phenol]
MIF; [2]
  IC50: 10 to 97.7 nM

## Cc1nc(N2CCC(O)(c3ccc(O)cc3)CC2)nc2c1ncn2CCCCC(=O)O [Example 160, 5-(2-(4-hydroxy-4-(4-hydroxyphenyl)piperidin-1-yl)-6-methyl-9H-purin-9-yl)pentanoic acid]
MIF; [2]
  IC50: > 10000 nM

## CCC(C(=O)O)n1cnc2c(-n3ncc4ccccc43)nc(N3CCN(c4ccc(O)cn4)CC3)nc21 (stereo not shown) [Example 142, 2-(2-(4-(5-hydroxypyridin-2-yl)piperazin-1-yl)-6-(1H-indazol-1-yl)-9H-purin-9-yl)butanoic acid]
MIF; [2]
  IC50: 10 to 97.7 nM
